Assay results published in patent US20020131996A1, “Methods and compositions for blocking microbial adherence to eukaryotic cells” (priority 2001, published 2002).

How the values were obtained:
Type in all cases: in vivo, human
[1] = tested on: infectious diarrhea (diarrheal agent not known); assay: Treatment of infectious diarrhea with oral isoleucine solution
Experimental: In this example isoleucine was administered to treat infectious diarrhea. In this example three individuals were naturally innoculated by a common agent. The nature of the diarrheal agent is not known. The duration of diarrhea was consistent with an infectious etiology. Isoleucine was utilized based on the hypothesis that reduction in microbial adherence would likely limit the continued re-infection of the gut wall by the agent, and/or prevent attachment of opportunistic commensal organisms.
Three members of a family traveling in the Middle East (MZ, BZ, JZ) contracted watery diarrhea, associated with food intolerance, following a meal they shared at a restaurant. Each individual had been in excellent health without prior history of GI complaints. All were unmedicated, including aspirin or antihistamines. […] Diarrhea was watery, without gross blood, minimal mucous, slight fever with chills, no nausea, and persistence of hunger. Peristalsis was vigorous and increased by ingestion of food. Each individual was placed on a diet restricted to clear liquids (juices and soda), digestible carbohydrates (bread, rice, candy). No medications were administered.
Six days after ingestion of the diarrheal agent, one individual was begun on oral isoleucine (ILE) therapy, while the other two continued on restricted diets. ILE (#E-2025 Bachem, lot 511191) was dissolved in distilled water to 0.001%. One glass of ILE solution (about 250 ml) was consumed every several hours. A total of about 4 liters was consumed over {fraction (3 1/2)}days. A reduction in stool frequency was noted within 12 hours of initiation of ILE therapy.

[2] = tested on: bacteria adherent to gingival epithelial cells; assay: Microbial adherence to gingival epithelial cells in volunteers with low grade gingivitis (Giemsa-stained gingival scrapings)
Excerpt: In this example isoleucine was applied as a pure crystalline powder directly to the gums. The individuals were normal human volunteers. Each individual had clinically evident low grade gingivitis, as determined by the puffiness of the gingival margin and a history of some bleeding during normal dental brushing. Oral health care comprised twice daily flossing and dental brushing with a non-medicated toothpaste. No oral antiseptic was used. The individuals were not taking antibiotics. Isoleucine was applied by application of powder on the fingertip to the outer and inner gum margins of the upper and lower jaws. The entirety of the gingival surface was covered manually, twice daily. The AM application was performed following breakfast, immediately after brushing. The PM application was conducted prior to retiring for sleep.
Gingival surface was gently scrapped with the side of a rectangular glass cover slip and the material described was applied to a glass microscope slide and air-dried. The slide was stained in concentrated Giemsa stain for 1 min, then destained in water for 5 min. The slide was then air-dried and mounted with a cover slip cemented with Permount. Slides were examined by light microscopy at 100×and 400×magnification. Under these staining conditions bacteria were clearly visualized as dark blue particles against the pale gray epithelial cells.
Gingival scrapings were taken in the morning prior to normal oral care and prior to eating. Prior to scraping, the subject rinsed the mouth with a cup of water to wash free particulate matter, unattached cells, and bacteria.
Scrapings were taken 3 days and 1 day prior to isoleucine administration and 1, 3, 5, and 7 days during isoleucine application. […] The bacteria adherent were represented by several different species, distinguished by morphology. […] At least 200 bacteria were counted on the average on each cell.

[3] = tested on: bacterial vaginosis; assay: Amelioration of bacterial vaginosis with isoleucine powder applied in the vagina
Experimental: In this example isoleucine was administered locally to the vagina to treat the symptoms of bacterial vaginosis. By inhibiting the adherence of bacteria to the wall of the vagina, microbial growth, inflammation, and associated signs of malodorous discharge and symptoms such as pruritis can be treated. A person, with a normal menstrual cycle and in excellent health, experienced vaginal irritation and malodorous discharge associated with their cycle, generally beginning several days prior to the onset of their period. Isoleucine was self-administered as a powder locally within the vaginal cavity digitally, twice a day. Within 2 days symptoms of vaginosis disappeared. Isoleucine therapy was continued for several days following termination of menstrual discharge, and then stopped. […] Isoleucine was again administered during the following months, cycled as described initially.

[4] = tested on: irritable bowel syndrome (IBS); assay: Amelioration of irritable bowel syndrome with isoleucine in yogurt
Experimental: In this example isoleucine was administered to individuals who experienced irritable bowel syndrome (IBS). IBS is a loosely defined condition associated with bowel discomfort including abdominal bloating, nausea, pain, and a sense of incomplete bowel movements. The etiology underlying IBS is unknown. It is our hypothesis that IBS results from adherence of certain “pathogenic” commensal organisms to the epithelial lining of certain segments of the GI tract, resulting in disturbance of normal host-bacteria relationships. […] Two women, each in their mid-50's, presented with a history of IBS of over 20 years, in each case. In each, IBS was characterized by a sense of bloating experienced after eating cooked or raw vegetables, fruits, and meat. Each individual experienced urgency to move her bowels several times a day to an extent that often awakened the individuals from sleep. Bloating was accompanied by abdominal discomfort, described as mild cramps. Individuals felt “gassy” most of the day. Each individual was given isoleucine, 1 tsp, twice a day, each dose mixed in ½cup of yogurt. The yogurt was included to promote reinoculation of the GI tract with probiotic “good” bacteria. In each case, it was known from previous experience that yogurt itself had little effect on the IBS experienced by these individuals. Within 2 days of isoleucine administration, bloating, urgency to defecate, and gassiness had disappeared. Both individuals described the state of their bowel function as “normal”, for the first time in 20 years. […] Each was then withdrawn from isoleucine, and provided yogurt unsupplemented with isoleucine. Within about 2 days both women recorded a reappearance of the former symptoms of IBS.

[5] = Day 1 of isoleucine powder applied to gums twice daily
[6] = Day 3 of isoleucine powder applied to gums twice daily
[7] = Day 7 of isoleucine powder applied to gums twice daily

`CC[C@H](C)[C@H](N)C(=O)O` [isoleucine] was tested, and the “Shortening of the duration of diarrhea” value ([1]; MZ versus two untreated family members (BZ, JZ)) was “approximately three”, the “Stools passed on the 3rd day of ILE therapy” value ([1]; individual, 3rd day) was “no stools were passed” and the Food tolerance ([1]; individual, by the 3rd day) was “cheese and chicken tolerated”. The “Stool by day 4 following ILE treatment” value ([1]; individual, day 4) was “a normal stool was passed”, the “Time to reduction in stool frequency after initiation of ILE therapy” value ([1]; one individual, 0.001% ILE in distilled water, oral, begun six days after ingestion of agent) was at most 12 h and the “Change in number of epithelial cells covered with a dense coat of bacteria” value ([2]; Day 1 following initiation of isoleucine application) was “little change”. The “Gingival epithelial cells with 0 Bacteria” value [2, 5] was 0 % cells, the “Gingival epithelial cells with 1-10 Bacteria” value [2, 5] was 10 % cells and the “Gingival epithelial cells with 10-100 Bacteria” value [2, 5] was 10 % cells. For the same molecule, the “Gingival epithelial cells with Contiguous lawn of bacteria” value [2, 5] was 80 % cells, the “Adherent bacteria in gingival smears” value ([2]; Day 3) was “dramatic reduction” and the “Microcolonies (contiguous groupings of greater than 4 organisms) on cells” value ([2]; Day 3) was “Few”. For the same molecule, the “Neutrophils in gingival smear (sign of inflammation)” value ([2]; Day 3) was “No neutrophils were evident”, the “Total adherent bacteria per cell (most cells)” value ([2]; Day 3) was under 100 and the “Cells fully covered with bacteria, of 100 cells examined” value ([2]; Day 3, of 100 cells examined) was 40. For the same molecule, the “Gingival epithelial cells with 0 Bacteria” value [2, 6] was 15 % cells, the “Gingival epithelial cells with 1-10 Bacteria” value [2, 6] was 15 % cells and the “Gingival epithelial cells with 10-100 Bacteria” value [2, 6] was 30 % cells. For the same molecule, the “Gingival epithelial cells with Contiguous lawn of bacteria” value [2, 6] was 40 % cells, the “Breath as described by an examiner in the AM prior to oral hygiene” value ([2]; Day 7) was “free of odor” and the “Gingival epithelial cells with 0 Bacteria” value [2, 7] was 80 % cells. For the same molecule, the “Gingival epithelial cells with 1-10 Bacteria” value [2, 7] was 15 % cells, the “Gingival epithelial cells with 10-100 Bacteria” value [2, 7] was 0 % cells and the “Gingival epithelial cells with Contiguous lawn of bacteria (fully covered)” value [2, 7] was 5 % cells. The “Symptoms following cessation of isoleucine administration” value ([3]; after cessation) was “remained symptom free”, the “Outcome of chronic vaginosis based on symptoms and signs” value ([3]; cycled administration during following months) was “effectively cured” and the “Time to disappearance of symptoms of vaginosis” value ([3]; one person, powder in the vaginal cavity twice a day) was at most 2 days. The “Response during maintenance on isoleucine” value ([4]; maintained for 1 month) was “consistent response”, the “State of bowel function as described by the individuals” value ([4]; two women on isoleucine in yogurt) was “normal” and the “Time to disappearance of bloating, urgency to defecate, and gassiness” value ([4]; two women, isoleucine 1 tsp twice a day in 1/2 cup yogurt) was at most 2 days. For the same molecule, the “Time to reappearance of former IBS symptoms after withdrawal from isoleucine” value ([4]; yogurt unsupplemented with isoleucine) was “about 2 days”.
